According to ChEMBL document CHEMBL1201862, “PubChem BioAssay data set” (2004):
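Values below derive from 48-hour exposures of cells grown in 96-well plates, with endpoints linearly interpolated between the two concentrations bracketing the appropriate inhibition level. At the GI50, growth is halved.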 Calls of active or inactive are those of the source. Cut-off read from the data, not from the text of the source: active = GI50 up to about 1.1 µM and inactive = higher.

Tests used:
Experiment in all cases: NCI tumour cell line growth inhibition, 48 h
M14 = system: M14
ACHN = system: ACHN
CAKI-1 = system: CAKI-1
SN12C = system: SN12C
SNB-19 = system: SNB-19
HOP-62 = system: HOP-62
TK-10 = system: TK-10
SK-MEL-5 = system: SK-MEL-5
HOP-92 = system: HOP-92
HL-60 = system: HL-60
CCRF-CEM = system: CCRF-CEM
Malme-3M = system: Malme-3M
HCT-116 = system: HCT-116
MDA-N = system: MDA-N
HT-29 = system: HT-29
PC-3 = system: PC-3
MDA-MB-231 = system: MDA-MB-231
786-0 = system: 786-0
SK-MEL-2 = system: SK-MEL-2
SF-539 = system: SF-539

Measured: GI50

CC#CCCN(CC#N)Cc1ccccc1
inactive: M14 > 100 µM | ACHN 21.3 µM | CAKI-1 > 100 µM | SN12C > 100 µM | SNB-19 > 100 µM | HOP-62 > 100 µM | TK-10 > 100 µM | SK-MEL-5 > 100 µM | HOP-92 > 100 µM | HL-60 > 100 µM | CCRF-CEM > 100 µM | Malme-3M > 100 µM | HCT-116 > 100 µM | MDA-N > 100 µM | HT-29 > 100 µM | PC-3 > 100 µM | MDA-MB-231 > 100 µM | 786-0 > 100 µM | SK-MEL-2 > 100 µM

COC(=O)N1C2C(C[C@@]1(C)C(=O)OC)c1ccccc1N2S(=O)(=O)c1ccccc1 (some centres not stated)
inactive: M14 > 100 µM | ACHN > 100 µM | CAKI-1 > 100 µM | SNB-19 > 100 µM | TK-10 > 100 µM | SK-MEL-5 > 100 µM | HOP-92 > 100 µM | HL-60 > 100 µM | CCRF-CEM > 100 µM | Malme-3M > 100 µM | HCT-116 > 100 µM | MDA-N > 100 µM | HT-29 > 100 µM | PC-3 > 100 µM | MDA-MB-231 > 100 µM | 786-0 > 100 µM | SK-MEL-2 > 100 µM

CCOC(=O)c1ccc(Nc2c3c(nc4ccccc24)CCCC3)cc1
inactive: M14 > 34.2 µM | ACHN > 91.4 µM | CAKI-1 54.5 µM | SN12C > 100 µM | SNB-19 41 µM | HOP-62 10.6 µM | TK-10 > 74.1 µM | SK-MEL-5 > 42.5 µM | HOP-92 18.1 µM | HL-60 3.22 µM | CCRF-CEM 14.2 µM | SF-539 48.9 µM | HCT-116 > 34.3 µM | MDA-N 1.76 µM | HT-29 2.89 µM | PC-3 > 47.5 µM | MDA-MB-231 26.6 µM | 786-0 29.2 µM | SK-MEL-2 > 86.9 µM

O=C(Nc1ccccc1C(=O)O)/C(=C/c1ccccc1)NC(=O)c1ccccc1
inactive: M14 > 100 µM | ACHN > 100 µM | CAKI-1 > 100 µM | SN12C > 100 µM | SNB-19 > 100 µM | HOP-62 > 100 µM | SK-MEL-5 > 100 µM | HOP-92 > 100 µM | HL-60 > 100 µM | CCRF-CEM > 100 µM | SF-539 > 100 µM | Malme-3M > 100 µM | HCT-116 > 100 µM | MDA-N > 100 µM | HT-29 > 100 µM | PC-3 > 100 µM | MDA-MB-231 > 100 µM | 786-0 > 100 µM | SK-MEL-2 > 100 µM

CC1OC(O[C@H]2CC[C@]3(C)[C@H]4CC=C5[C@@H]6[C@@H](C)[C@H](C)CC[C@]6(C(=O)OC6OC(CO)C(O)C(O)C6O)CC[C@@]5(C(=O)O)[C@]4(C)CC[C@H]3C2(C)C)C(O)C(O)C1O (some centres not stated)
inactive: M14 > 100 µM | ACHN > 100 µM | CAKI-1 > 100 µM | SN12C > 100 µM | SNB-19 > 100 µM | HOP-62 > 100 µM | TK-10 > 100 µM | SK-MEL-5 > 100 µM | HOP-92 > 100 µM | HL-60 > 100 µM | CCRF-CEM > 100 µM | SF-539 > 100 µM | HCT-116 > 100 µM | MDA-N > 100 µM | PC-3 > 100 µM | MDA-MB-231 > 100 µM | 786-0 > 100 µM | SK-MEL-2 > 100 µM

NS(=O)(=O)c1nnc(/N=C(/CCC(=O)O)C(=O)O)s1
inactive: M14 > 100 µM | ACHN > 100 µM | CAKI-1 > 100 µM | SN12C > 100 µM | SNB-19 > 100 µM | HOP-62 > 100 µM | TK-10 > 100 µM | SK-MEL-5 > 100 µM | HOP-92 > 100 µM | HL-60 > 100 µM | CCRF-CEM > 100 µM | SF-539 > 100 µM | Malme-3M 41.3 µM | HCT-116 > 100 µM | MDA-N > 100 µM | HT-29 > 100 µM | PC-3 > 100 µM | MDA-MB-231 > 100 µM | 786-0 > 100 µM | SK-MEL-2 > 100 µM

CC(CCC(=O)O)C(=O)O (configuration not stated)
inactive: M14 > 100 µM | ACHN > 100 µM | CAKI-1 > 100 µM | SN12C > 100 µM | SNB-19 > 100 µM | HOP-62 > 100 µM | TK-10 > 100 µM | SK-MEL-5 > 100 µM | HOP-92 > 100 µM | HL-60 > 100 µM | CCRF-CEM > 100 µM | SF-539 > 100 µM | Malme-3M > 100 µM | HCT-116 > 100 µM | MDA-N > 100 µM | HT-29 > 100 µM | PC-3 > 100 µM | MDA-MB-231 > 100 µM | 786-0 > 100 µM | SK-MEL-2 > 100 µM
